The term EC50 denotes the concentration needed to bring the measured effect to its halfway point.

Like-named read-outs stand apart in the source and are kept apart here. Marks after values point to notes of the source that are not given here.

The target in the test is T1, F508delCFTR (Homo sapiens, UniProt P13569, DEL508-508).
T1 construct: expressed in transfected cells; host or cells: CFBE41o- human lung derived epithelial cells (CFBE41o-F508delCFTR-HRP), doxycycline-inducible
The test can be described thus: Cell Surface Expression-Horse Radish Peroxidase (CSE-HRP) Assay.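 For EC50 (with co-corrector): co-corrector chromenyl benzoic acid corrector at 2 or 3 µM.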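 For Maximum % activity (without co-corrector): % of on-plate positive control chromenyl benzoic acid corrector at 2 or 3 µM.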 It counts as cell-based. The conditions noted are these: for Maximum % activity (with co-corrector) / Emax: maximum at any tested concentration; for Emax: read-out: Maximum % activity (without co-corrector). In a few lines: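 Corrector compounds were given as 8-point 3-fold series from 20 or 30 μM, with or without a 2 μM co-corrector, for 18-24 h at 33 °C. Surface HRP was read by luminol luminescence as % of positive control; variable-Hill-slope sigmoidal fitting gave EC50 from triplicate plates.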

[1] abbreviates: test compound with co-corrector.
Setting [2] is: test compound with co-corrector, read-out: EC50 (with co-corrector).
[3] abbreviates: test compound without co-corrector.
The mark [4] stands for this setting: test compound without co-corrector, read-out: EC50 (without co-corrector).

T1 sequence (P13569 with tags, fused parts or gaps DEL508-508): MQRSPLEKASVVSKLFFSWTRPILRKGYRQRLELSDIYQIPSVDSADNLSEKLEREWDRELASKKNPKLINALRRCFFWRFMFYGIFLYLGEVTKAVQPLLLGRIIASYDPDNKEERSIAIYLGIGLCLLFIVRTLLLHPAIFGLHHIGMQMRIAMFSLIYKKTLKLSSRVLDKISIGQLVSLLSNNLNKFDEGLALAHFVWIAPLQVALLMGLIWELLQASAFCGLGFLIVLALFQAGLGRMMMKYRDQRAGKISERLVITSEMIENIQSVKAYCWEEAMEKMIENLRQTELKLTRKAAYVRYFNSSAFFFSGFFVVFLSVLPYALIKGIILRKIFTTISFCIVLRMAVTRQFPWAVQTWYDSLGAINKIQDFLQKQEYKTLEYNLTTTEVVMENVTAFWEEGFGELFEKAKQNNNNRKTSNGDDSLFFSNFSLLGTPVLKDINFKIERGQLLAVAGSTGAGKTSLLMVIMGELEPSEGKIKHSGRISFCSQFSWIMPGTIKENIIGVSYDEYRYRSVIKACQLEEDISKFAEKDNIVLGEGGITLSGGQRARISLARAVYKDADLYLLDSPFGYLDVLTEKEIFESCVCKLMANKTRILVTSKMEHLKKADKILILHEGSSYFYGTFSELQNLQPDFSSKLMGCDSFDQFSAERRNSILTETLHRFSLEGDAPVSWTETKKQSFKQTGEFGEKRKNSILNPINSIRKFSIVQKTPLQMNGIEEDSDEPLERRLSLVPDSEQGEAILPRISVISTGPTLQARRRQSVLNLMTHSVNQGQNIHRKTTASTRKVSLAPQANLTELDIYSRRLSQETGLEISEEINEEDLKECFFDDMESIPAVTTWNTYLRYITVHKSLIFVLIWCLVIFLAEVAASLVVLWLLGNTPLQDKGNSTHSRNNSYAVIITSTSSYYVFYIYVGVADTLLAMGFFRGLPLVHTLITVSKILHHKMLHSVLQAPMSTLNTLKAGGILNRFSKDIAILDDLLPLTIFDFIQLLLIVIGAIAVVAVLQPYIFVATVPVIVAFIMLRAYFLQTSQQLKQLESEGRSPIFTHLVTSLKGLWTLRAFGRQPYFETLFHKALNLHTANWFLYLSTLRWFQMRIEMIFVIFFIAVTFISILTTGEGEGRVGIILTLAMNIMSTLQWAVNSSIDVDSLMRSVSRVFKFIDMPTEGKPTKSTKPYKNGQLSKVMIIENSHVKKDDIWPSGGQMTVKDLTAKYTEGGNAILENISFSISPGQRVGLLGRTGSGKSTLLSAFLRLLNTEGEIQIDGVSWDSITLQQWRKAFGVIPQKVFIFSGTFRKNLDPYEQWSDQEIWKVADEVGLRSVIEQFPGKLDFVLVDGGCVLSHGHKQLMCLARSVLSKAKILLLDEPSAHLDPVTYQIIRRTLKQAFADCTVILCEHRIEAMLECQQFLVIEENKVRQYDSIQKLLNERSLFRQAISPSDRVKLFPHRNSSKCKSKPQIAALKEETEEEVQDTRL

On to `O=C(NS(=O)(=O)c1cccc2ncccc12)C1(c2cc(C3CCC3)cnc2N2CCOCC2)CC1` [GII-28, 1-[5-cyclobutyl-2-(morpholin-4-yl)pyridin-3-yl]-N-(quinoline-5-sulfonyl)cyclopropane-1-carboxamide], for which, under setting [1], the “Maximum % activity (with co-corrector)” value was “++ (≥150 and <350)”. Under setting [2], the half-maximal effective concentration (EC50) was in the range of 3 to 10 µM. For the same compound, under setting [3], the “EC50 (without co-corrector)” value is given as “++^a” and the Emax lay within 50 to 150%.

In the case of `O=C(NS(=O)(=O)c1cccc2c1CCCN2)C1(c2cc(C3CC3)cnc2N2CCCC2)CC1` [GII-29, 1-[5-cyclopropyl-2-(pyrrolidin-1-yl)pyridin-3-yl]-N-(1,2,3,4-tetrahydroquinoline-5-sulfonyl)cyclopropane-1-carboxamide], the “Maximum % activity (with co-corrector)” value under setting [1] is recorded as “+++ (≥350)”. Moreover, the EC50 runs as follows: under setting [2], 3 to 10 µM; under setting [4], 3 to 10 µM. The Emax under setting [3] was above 150%.

Turning to `CCc1cnc(N2CCCC2)c(C2(C(=O)NS(=O)(=O)c3cccc4ncccc34)CC2)c1` [GII-30, 1-[5-ethyl-2-(pyrrolidin-1-yl)pyridin-3-yl]-N-(quinoline-5-sulfonyl)cyclopropane-1-carboxamide], the “Maximum % activity (with co-corrector)” value under setting [1] is “+++ (≥350)”. The EC50 was in the range of 3 to 10 µM under setting [2] and 3 to 10 µM under setting [4]. For the same compound, the Emax under setting [3] is above 150%.

As to `CCc1cnc(N2CCCC2)c(C2(C(=O)NS(=O)(=O)c3cccc4nc(C)ccc34)CC2)c1` [GII-31, 1-[5-ethyl-2-(pyrrolidin-1-yl)pyridin-3-yl]-N-(2-methylquinoline-5-sulfonyl)cyclopropane-1-carboxamide], under setting [1], the “Maximum % activity (with co-corrector)” value is reported as “+++ (≥350)”. Moreover, the EC50 is 3 to 10 µM under setting [2] and 3 to 10 µM under setting [4]. The Emax under setting [3] was above 150%.

In the case of `CCc1cnc(N2CCOCC2)c(C2(C(=O)NS(=O)(=O)c3cccc4nc(C)ccc34)CC2)c1` [GII-32, 1-[5-ethyl-2-(morpholin-4-yl)pyridin-3-yl]-N-(2-methylquinoline-5-sulfonyl)cyclopropane-1-carboxamide], under setting [1], the “EC50 (with co-corrector)” value is on record as “++^a”; the “Maximum % activity (with co-corrector)” value is “++ (≥150 and <350)”. For the same compound, under setting [3], the “EC50 (without co-corrector)” value was “++^a” and the Emax was in the range of 50 to 150%.

Consider `O=C(NS(=O)(=O)c1cccc2ncccc12)C1(c2cccnc2N2CCCC2)CC1` [GII-33, 1-[2-(pyrrolidin-1-yl)pyridin-3-yl]-N-(quinoline-5-sulfonyl)cyclopropane-1-carboxamide], for which, under setting [1], the “EC50 (with co-corrector)” value is on record as “++^a”; the “Maximum % activity (with co-corrector)” value is “++ (≥150 and <350)”. Besides, under setting [3], the “EC50 (without co-corrector)” value is given as “++^a” and the Emax was 50 to 150%.

On to `Cc1ccc2c(S(=O)(=O)NC(=O)C3(c4cccnc4N4CCCC4)CC3)cccc2n1` [GII-34, N-(2-methylquinoline-5-sulfonyl)-1-[2-(pyrrolidin-1-yl)pyridin-3-yl]cyclopropane-1-carboxamide], for which, under setting [1], the “EC50 (with co-corrector)” value is given as “++^a”; the “Maximum % activity (with co-corrector)” value is “++ (≥150 and <350)”. Moreover, under setting [3], the “EC50 (without co-corrector)” value is on record as “++^a” and the Emax fell in the range of 50 to 150%.

On to `CCc1cnc(N2CCCC2)c(C2(C(=O)NS(=O)(=O)c3cccc4c3CCCN4)CC2)c1` [GII-35, 1-[5-ethyl-2-(pyrrolidin-1-yl)pyridin-3-yl]-N-(1,2,3,4-tetrahydroquinoline-5-sulfonyl)cyclopropane-1-carboxamide], for which the “Maximum % activity (with co-corrector)” value under setting [1] is “++ (≥150 and <350)”. Further, the EC50 under setting [2] is 3 to 10 µM and the EC50 under setting [4] was 3 to 10 µM. Besides, the Emax under setting [3] was above 150%.

Consider `Cc1cnc(N2CCCC2)c(C2(C(=O)NS(=O)(=O)c3cccc4nc(C)ccc34)CC2)c1` [GII-36, 1-[5-methyl-2-(pyrrolidin-1-yl)pyridin-3-yl]-N-(2-methylquinoline-5-sulfonyl)cyclopropane-1-carboxamide], for which, under setting [1], the “Maximum % activity (with co-corrector)” value is “+++ (≥350)”. Also, the EC50 under setting [2] lay within 3 to 10 µM and the EC50 under setting [4] was 3 to 10 µM. Besides, the Emax under setting [3] is 50 to 150%.

As to `Cc1cnc(N2CCCC2)c(C2(C(=O)NS(=O)(=O)c3cccc4[nH]ccc34)CC2)c1` [GII-37, N-(1H-indole-4-sulfonyl)-1-[5-methyl-2-(pyrrolidin-1-yl)pyridin-3-yl]cyclopropane-1-carboxamide], the “Maximum % activity (with co-corrector)” value under setting [1] is given as “+++ (≥350)”. In addition, the EC50 under setting [2] lay within 3 to 10 µM and the EC50 under setting [4] was in the range of 3 to 10 µM. Also, the Emax under setting [3] is above 150%.

For the compound `Cc1cnc(N2CCCC2)c(C2(C(=O)NS(=O)(=O)c3cccc4ncccc34)CC2)c1` [GII-38, 1-[5-methyl-2-(pyrrolidin-1-yl)pyridin-3-yl]-N-(quinoline-5-sulfonyl)cyclopropane-1-carboxamide], under setting [1], the “Maximum % activity (with co-corrector)” value is recorded as “+++ (≥350)”. The concentration for a half-maximal effect (EC50) by setting is: under setting [2], 3 to 10 µM; under setting [4], 3 to 10 µM. Moreover, the Emax under setting [3] is above 150%.

With `Cc1cnc(C2(C(=O)NS(=O)(=O)c3cccc4[nH]ccc34)CC2)c(C2CC2)c1` [GII-39, 1-(3-cyclopropyl-5-methylpyridin-2-yl)-N-(1H-indole-4-sulfonyl)cyclopropane-1-carboxamide], the “Maximum % activity (with co-corrector)” value under setting [1] was “++ (≥150 and <350)”. Further, the EC50 is 3 to 10 µM under setting [2] and 3 to 10 µM under setting [4]. Besides, the Emax under setting [3] was in the range of 50 to 150%.

As for `COc1cnc(N2CCCC2)c(C2(C(=O)NS(=O)(=O)c3cccc4ncccc34)CC2)c1` [GII-40, 1-[5-methoxy-2-(pyrrolidin-1-yl)pyridin-3-yl]-N-(quinoline-5-sulfonyl)cyclopropane-1-carboxamide], the “Maximum % activity (with co-corrector)” value under setting [1] is listed as “+++ (≥350)”. Also, the half-maximal effective concentration (EC50) lay in the range of 3 to 10 µM under setting [2] and 3 to 10 µM under setting [4]. In addition, the Emax under setting [3] was above 150%.

Consider `Cc1cnc(N(C)C)c(C2(C(=O)NS(=O)(=O)c3cccc4ncccc34)CC2)c1` [GII-41, 1-[2-(dimethylamino)-5-methylpyridin-3-yl]-N-(quinoline-5-sulfonyl)cyclopropane-1-carboxamide], for which the “Maximum % activity (with co-corrector)” value under setting [1] is “+++ (≥350)”. Further, the concentration for a half-maximal effect (EC50) runs as follows: under setting [2], 3 to 10 µM; under setting [4], 3 to 10 µM. Besides, the Emax under setting [3] lay within 50 to 150%.

With `COCCOc1ncc(OC)cc1C1(C(=O)NS(=O)(=O)c2cccc3nc(C)ccc23)CC1` [GII-42, 1-[5-methoxy-2-(2-methoxyethoxy)pyridin-3-yl]-N-(2-methylquinoline-5-sulfonyl)cyclopropane-1-carboxamide], the “Maximum % activity (with co-corrector)” value under setting [1] was “++ (≥150 and <350)”. In addition, the EC50 under setting [2] fell in the range of 3 to 10 µM. In addition, under setting [3], the “EC50 (without co-corrector)” value is on record as “++^a” and the Emax was 50 to 150%.

`COCCOc1ncc(OC)cc1C1(C(=O)NS(=O)(=O)c2cccc3[nH]ccc23)CC1` [GII-43, N-(1H-indole-4-siilfonyl)-1-[5-methoxy-2-(2-methoxyethoxy)pyridin-3-yl]cyclopropane-1-carboxamide]: under setting [1], the “Maximum % activity (with co-corrector)” value is “++ (≥150 and <350)”. Besides, the half-maximal effective concentration (EC50) under setting [2] lay in the range of 3 to 10 µM. Also, under setting [3], the “EC50 (without co-corrector)” value is recorded as “++^a” and the Emax was 50 to 150%.

As for `COCCOc1ncc(OC)cc1C1(C(=O)NS(=O)(=O)c2cccc3ncccc23)CC1` [GII-44, 1-[5-methoxy-2-(2-methoxyethoxy)pyridin-3-yl]-N-(quinoline-5-sulfonyl)cyclopropane-1-carboxamide], under setting [1], the “EC50 (with co-corrector)” value was “++^a”; the “Maximum % activity (with co-corrector)” value was “++ (≥150 and <350)”. Further, under setting [3], the “EC50 (without co-corrector)” value is recorded as “++^a” and the Emax fell in the range of 50 to 150%.

Regarding `COCCOc1cnc(OC)cc1C1(C(=O)NS(=O)(=O)c2cccc3[nH]ccc23)CC1` [GII-45, N-(1H-indole-4-sulfonyl)-1-[2-methoxy-5-(2-methoxyethoxy)pyridin-4-yl]cyclopropane-1-carboxamide], the “Maximum % activity (with co-corrector)” value under setting [1] was “+++ (≥350)”. For the same compound, the EC50 reads like this: under setting [2], 3 to 10 µM; under setting [4], 3 to 10 µM. The Emax under setting [3] was above 150%.

For the compound `COCCOc1cnc(OC)cc1C1(C(=O)NS(=O)(=O)c2cccc3nc(C)ccc23)CC1` [GII-46, 1-[2-methoxy-5-(2-methoxyethoxy)pyridin-4-yl]-N-(2-methylquinoline-5-sulfonyl)cyclopropane-1-carboxamide], the “Maximum % activity (with co-corrector)” value under setting [1] is “++ (≥150 and <350)”. In addition, under setting [2], the concentration for a half-maximal effect (EC50) is 3 to 10 µM. In addition, under setting [3], the “EC50 (without co-corrector)” value was “++^a” and the Emax lay in the range of 50 to 150%.

Regarding `CCc1cnc(N(C)C)c(C2(C(=O)NS(=O)(=O)c3cccc4ncccc34)CC2)c1` [GII-47, 1-[2-(dimethylamino)-5-ethylpyridin-3-yl]-N-(quinoline-5-sulfonyl)cyclopropane-1-carboxamide], the “Maximum % activity (with co-corrector)” value under setting [1] is reported as “+++ (≥350)”. Also, the EC50 is above 10 µM under setting [2] and 3 to 10 µM under setting [4]. Further, the Emax under setting [3] is above 150%.

As to `CCc1cnc(N(C)C)c(C2(C(=O)NS(=O)(=O)c3cccc4nc(C)ccc34)CC2)c1` [GII-48, 1-[2-(dimethylamino)-5-ethylpyridin-3-yl]-N-(2-methylquinoline-5-sulfonyl)cyclopropane-1-carboxamide], under setting [1], the “Maximum % activity (with co-corrector)” value is on record as “+++ (≥350)”. For the same compound, the EC50 by setting is: under setting [2], 3 to 10 µM; under setting [4], 3 to 10 µM. The Emax under setting [3] was above 150%.

For the compound `CCc1cnc(N(C)C)c(C2(C(=O)NS(=O)(=O)c3cccc4[nH]ccc34)CC2)c1` [GII-49, 1-[2-(dimethylamino)-5-ethylpyridin-3-yl]-N-(1H-indole-4-sulfonyl)cyclopropane-1-carboxamide], under setting [1], the “Maximum % activity (with co-corrector)” value is “+++ (≥350)”. The EC50 is, setting by setting: under setting [2], 3 to 10 µM; under setting [4], 3 to 10 µM. Further, the Emax under setting [3] was above 150%.

These data come from patent US10829473B2, “Modulators of the cystic fibrosis transmembrane conductance regulator protein and methods of use” (AbbVie Overseas S.Á.R.L., priority 2017, dated 2020).
